Experiment [1] has as its target T1, recombinant human plasminogen activator inhibitor-1 (PAI-1) (Homo sapiens, UniProt P05121).
T1 construct: purchased Molecular Innovations, Royal Oak, Mich
Kind of experiment: Primary screen for the PAI-1 inhibition (chromogenic tPA activity, Spectrozyme-tPA). Format: biochemical. The note with it: compound at 100 μM. On the procedure:
Test compounds are dissolved in DMSO at a final concentration of 10 mM, then diluted 100× in physiologic buffer. The inhibitory assay is initiated by the addition of the substituted oxadiazolidinedione (1–100 μM final concentration, maximun DMSO concentration of 0.2%) in a pH 6.6 buffer containing 140 nM recombinant human plasminogen activator inhibitor-1 (PAI-1; Molecular Innovations, Royal Oak, Mich.). Following a 1 hour incubation at room temperature, 70 nM of recombinant human tissue plasminogen activator (tPA) is added, and the combination of the substituted oxadiazolidinedione, PAI-1 and tPA is incubated for an additional 30 minutes. Following the second incubation, Spectrozyme-tPA (American Diagnostica, Greenwich, Conn.), a chromogenic substrate for tPA, is added and absorbance read at 405 nm at 0 and 60 minutes. Relative PAI-1 inhibition is equal to the residual tPA activity in the presence of the test compound and PAI-1. Control treatments include the complete inhibition of tPA by PAI-1 at the molar ratio employed (2:1), and the absence of any effect of the substituted oxadiazolidinedione on tPA alone.

The next experiment addresses human PAI-1 (Homo sapiens, UniProt P05121). Kind of experiment: Assay for determining IC50 of inhibition of PAI-1 (active PAI-1 bound to tPA-coated plate, 33B8 antibody detection). The note with it: values carry suffix (K), not defined in the patent. Format: biochemical. How it is done:
This assay is based upon the non-SDS dissociable interaction between tPA and active PAI-1. Assay plates are initially coated with human tPA (10 μg/ml). Substituted oxadiazolidinediones of the present invention are dissolved in DMSO at 10 mM, then diluted with physiologic buffer (pH 7.5) to a final concentration of 1–50 μM. Test compounds are incubated with human PAI-1 (50 ng/ml) for 15 minutes at room temperature. The tPA-coated plate is washed with a solution of 0.05% Tween 20 and 0.1% BSA, then the plate is blocked with a solution of 3% BSA. An aliquot of the substituted oxadiazolidinedione/PAI-1 solution is then added to the tPA-coated plate, incubated at room temperature for 1 hour, and washed. Active PAI-1 bound to the plate is assessed by adding an aliquot of a 1:1000 dilution of the 33B8 monoclonal antibody against human PAI-1, and incubating the plate at room temperature for 1 hour (Molecular Innovations, Royal Oak, Mich.). The plate is again washed, and a solution of goat anti-mouse IgG-alkaline phosphatase conjugate is added at a 1:50,000 dilution in goat serum. The plate is incubated 30 minutes at room temperature, washed, and a solution of alkaline phosphatase substrate is added. The plate is incubated 45 minutes at room temperature, and color development is determined at OD405nm. The quantitation of active PAI-1 bound to tPA at varying concentrations of the substituted oxadiazolidinedione is used to determine the IC50. Results are analyzed using a logarithmic best-fit equation. The assay sensitivity is 5 ng/ml of human PAI-1 as determined from a standard curve ranging from 0–100 ng/ml.

Broadly, the inhibition is the relative decrease from the control value, in per cent. One may read the IC50 as the concentration that gives 50% inhibition. Higher therefore signals lower potency.

T1 sequence (P05121 24-402): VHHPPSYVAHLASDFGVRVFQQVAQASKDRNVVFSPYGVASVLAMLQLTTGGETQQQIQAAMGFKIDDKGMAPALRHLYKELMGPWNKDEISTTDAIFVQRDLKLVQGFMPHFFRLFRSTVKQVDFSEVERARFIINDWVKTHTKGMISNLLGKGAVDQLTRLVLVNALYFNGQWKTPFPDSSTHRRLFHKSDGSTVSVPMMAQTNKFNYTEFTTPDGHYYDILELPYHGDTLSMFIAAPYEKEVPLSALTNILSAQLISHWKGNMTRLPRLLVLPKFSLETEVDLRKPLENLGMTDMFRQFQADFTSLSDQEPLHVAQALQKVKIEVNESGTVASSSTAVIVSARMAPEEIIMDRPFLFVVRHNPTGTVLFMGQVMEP
Sequence of human PAI-1 (P05121 24-402): as above

Turning to `CC(C)(C)c1ccc(COc2ccc3c(c2)c(Cn2oc(=O)[nH]c2=O)cn3Cc2ccccc2)cc1` [Compound 1, 2-({1-benzyl-5-[(4-tert-butylbenzyl)oxy]-1H-indol-3-yl}methyl)-1,2,4-oxadiazolidine-3,5-dione], in experiment [1], the inhibition at 100 µM was found to be 96%. In addition, at human PAI-1, the IC50 is 13.8 µM.

On to `O=c1[nH]c(=O)n(Cc2cn(Cc3ccccc3)c3ccc(OCc4cccc(Cl)c4)cc23)o1` [Compound 9, 2-({1-benzyl-5-[(3-chlorobenzyl)oxy]-1H-indol-3-yl}methyl)-1,2,4-oxadiazolidine-3,5-dione], for which, in experiment [1], the inhibition at 100 µM amounted to 92%. At human PAI-1, this compound showed an IC50 of 26.5 µM. The corresponding values for `O=c1[nH]c(=O)n(Cc2cn(Cc3ccccc3)c3ccc(OCc4cccc(C(F)(F)F)c4)cc23)o1` [Compound 10, 2-[(1-benzyl-5-{[3-(trifluoromethyl)benzyl]oxy}-1H-indol-3-yl)methyl]-1,2,4-oxadiazolidine-3,5-dione] are 92% and 9.36 µM.

As to `O=c1[nH]c(=O)n(Cc2cc(OCc3cccc(Cl)c3)cc(OCc3cccc(Cl)c3)c2)o1` [Compound 71, 2-{3,5-bis[(3-chlorobenzyl)oxy]benzyl}-1,2,4-oxadiazolidine-3,5-dione], the inhibition at 100 µM in experiment [1] is 85%.

On to `O=c1[nH]c(=O)n(Cc2cc(OCc3ccc(C(F)(F)F)cc3)cc(OCc3ccc(C(F)(F)F)cc3)c2)o1` [Compound 72, 2-(3,5-bis{[4-(trifluoromethyl)benzyl]oxy}benzyl)-1,2,4-oxadiazolidine-3,5-dione], for which the inhibition at 100 µM in experiment [1] was 87%.

As for `Cc1cccc(COc2cc(Cn3oc(=O)[nH]c3=O)cc(OCc3cccc(C)c3)c2)c1` [Compound 73, 2-{3,5-bis[(3-methylbenzyl)oxy]benzyl}-1,2,4-oxadiazolidine-3,5-dione], the inhibition at 100 µM in experiment [1] is 81%. On to `O=c1[nH]c(=O)n(Cc2cc(OCc3cccc(Br)c3)cc(OCc3cccc(Br)c3)c2)o1` [Compound 74, 2-{3,5-bis[(3-bromobenzyl)oxy]benzyl}-1,2,4-oxadiazolidine-3,5-dione], for which, in experiment [1], the inhibition at 100 µM came out at 92%.

Regarding `O=c1[nH]c(=O)n(Cc2cc(OCc3ccccc3Br)cc(OCc3ccccc3Br)c2)o1` [Compound 75, 2-{3,5-bis[(2-bromobenzyl)oxy]benzyl}-1,2,4-oxadiazolidine-3,5-dione], the inhibition at 100 µM in experiment [1] stood at 91%. Still for that read-out and setting: to `COc1cc(Cn2oc(=O)[nH]c2=O)cc(OCc2ccc(C(F)(F)F)cc2)c1OCc1ccc(C(F)(F)F)cc1` [Compound 76, 2-(3-methoxy-4,5-bis{[4-(trifluoromethyl)benzyl]oxy}benzyl)-1,2,4-oxadiazolidine-3,5-dione] belongs 95%. On the same count and under the same terms, to `COc1cc(Cn2oc(=O)[nH]c2=O)cc(OCc2cccc(C)c2)c1OCc1cccc(C)c1` [Compound 77, 2-{3-methoxy-4,5-bis[(3-methylbenzyl)oxy]benzyl}-1,2,4-oxadiazolidine-3,5-dione] belongs 88%; to `COc1cc(Cn2oc(=O)[nH]c2=O)cc(OCc2cccc(Cl)c2)c1OCc1cccc(Cl)c1` [Compound 78, 2-{3,4-bis[(3-chlorobenzyl)oxy]-5-methoxybenzyl}-1,2,4-oxadiazolidine-3,5-dione], 91%. Same read-out and setting: in the case of `COc1cc(Cn2oc(=O)[nH]c2=O)cc(OCc2cccc(Br)c2)c1OCc1cccc(Br)c1` [Compound 79, 2-{3,4-bis[(3-bromobenzyl)oxy]-5-methoxybenzyl}-1,2,4-oxadiazolidine-3,5-dione] it was 87%. Consider `COc1cc(Cn2oc(=O)[nH]c2=O)cc(OCc2ccccc2Br)c1OCc1ccccc1Br` [Compound 80, 2-{3,4-bis[(2-bromobenzyl)oxy]-5-methoxybenzyl}-1,2,4-oxadiazolidine-3,5-dione], for which, in experiment [1], the inhibition at 100 µM was found to be 89%. Still for that read-out and setting: in the case of `O=c1[nH]c(=O)n(Cc2cccc(OCc3ccc(C(F)(F)F)cc3)c2OCc2ccc(C(F)(F)F)cc2)o1` [Compound 81, 2-(2,3-bis{[4-(trifluoromethyl)benzyl]oxy}benzyl)-1,2,4-oxadiazolidine-3,5-dione] it was 92%; in that of `Cc1cccc(COc2cccc(Cn3oc(=O)[nH]c3=O)c2OCc2cccc(C)c2)c1` [Compound 82, 2-{2,3-bis[(3-methylbenzyl)oxy]benzyl}-1,2,4-oxadiazolidine-3,5-dione], 80%; in that of `O=c1[nH]c(=O)n(Cc2cccc(OCc3cccc(Cl)c3)c2OCc2cccc(Cl)c2)o1` [Compound 83, 2-{2,3-bis[(3-chlorobenzyl)oxy]benzyl}-1,2,4-oxadiazolidine-3,5-dione], 95%.

With `O=c1[nH]c(=O)n(Cc2cccc(OCc3cccc(Br)c3)c2OCc2cccc(Br)c2)o1` [Compound 84, 2-{2,3-bis[(3-bromobenzyl)oxy]benzyl}-1,2,4-oxadiazolidine-3,5-dione], the inhibition at 100 µM in experiment [1] was found to be 95%. Same read-out and setting: to `O=c1[nH]c(=O)n(Cc2cccc(OCc3ccccc3Br)c2OCc2ccccc2Br)o1` [Compound 85, 2-{2,3-bis[(2-bromobenzyl)oxy]benzyl}-1,2,4-oxadiazolidine-3,5-dione] belongs 93%; to `O=c1[nH]c(=O)n(Cc2ccc(OCc3ccc(C(F)(F)F)cc3)c(OCc3ccc(C(F)(F)F)cc3)c2)o1` [Compound 86, 2-(3,4-bis{[4-(trifluoromethyl)benzyl]oxy}benzyl)-1,2,4-oxadiazolidine-3,5-dione], 94%. Still for that read-out and setting: in the case of `Cc1cccc(COc2ccc(Cn3oc(=O)[nH]c3=O)cc2OCc2cccc(C)c2)c1` [Compound 87, 2-{3,4-bis[(3-methylbenzyl)oxy]benzyl}-1,2,4-oxadiazolidine-3,5-dione] it was 92%; in that of `O=c1[nH]c(=O)n(Cc2ccc(OCc3cccc(Cl)c3)c(OCc3cccc(Cl)c3)c2)o1` [Compound 88, 2-{3,4-bis[(3-chlorobenzyl)oxy]benzyl}-1,2,4-oxadiazolidine-3,5-dione], 91%; in that of `O=c1[nH]c(=O)n(Cc2ccc(OCc3cccc(Br)c3)c(OCc3cccc(Br)c3)c2)o1` [Compound 89, 2-{3,4-bis[(3-bromobenzyl)oxy]benzyl}-1,2,4-oxadiazolidine-3,5-dione], 88%. Same read-out and setting: in the case of `O=c1[nH]c(=O)n(Cc2ccc(OCc3ccccc3Br)c(OCc3ccccc3Br)c2)o1` [Compound 90, 2-{3,4-bis[(2-bromobenzyl)oxy]benzyl}-1,2,4-oxadiazolidine-3,5-dione] it was 94%.

The values are drawn from patent US7141592B2, “Substituted oxadiazolidinediones” (Wyeth, priority 2003, dated 2006).
